The record followed here is patent publication US11220479B2, “Glucosylceramide synthase inhibitors and therapeutic methods using the same” (THE REGENTS OF THE UNIVERSITY OF MICHIGAN, priority 2019, dated 2022).

Data set [1] is described as follows: Half-life when incubated with mouse liver microsomes (MLM). The class given is in vitro ADME. As to conditions: read-out: MLM T½. On the procedure:
^a Inhibition of GlcCer production in whole wild-type MDCKII cells. ^bHalf-life when incubated with mouse liver microsomes. ^cAreas under the drug concentration curve after single IP dose in mice (10 mg/kg). ^dReduction in brain levels of glucosylceramide in CBE mice after 14 days of qd dosing with test drug administered IP. NC=no change.

The target in data set [2] is T1, glucosylceramide synthase (GCS) (Canis lupus familiaris, UniProt A0A8I3MXG6).
T1 construct: endogenous in cells; host or cells: parental (wild-type) MDCKII cells
T1 sequence (A0A8I3MXG6 1-394): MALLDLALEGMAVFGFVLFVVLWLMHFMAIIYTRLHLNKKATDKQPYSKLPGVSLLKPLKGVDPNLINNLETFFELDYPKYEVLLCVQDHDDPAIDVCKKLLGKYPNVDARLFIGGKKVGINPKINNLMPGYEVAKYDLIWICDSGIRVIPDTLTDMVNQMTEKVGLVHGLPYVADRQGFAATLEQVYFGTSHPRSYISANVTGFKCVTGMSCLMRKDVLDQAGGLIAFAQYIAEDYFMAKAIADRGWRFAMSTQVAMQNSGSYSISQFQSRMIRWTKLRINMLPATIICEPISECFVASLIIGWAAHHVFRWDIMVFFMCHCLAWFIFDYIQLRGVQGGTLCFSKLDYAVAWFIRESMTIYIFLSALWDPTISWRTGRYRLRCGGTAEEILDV
The data set can be described thus: GCS inhibition in MDCKII cells (inhibition of GlcCer production in whole wild-type MDCKII cells). The class given is cell-based. Conditions: read-out: MDCK IC50.
Protocol: GCS Inhibition in MDCKII Cells
Parental (WT-)MDCKII cells were routinely maintained in medium consisting of Opti-MEM/F12 (1:1), 5% FBS, 100 U/mL of penicillin, 100 μg/mL streptomycin and 200 mM L-glutamine. MDCKII cells were newly thawed from frozen ampules every two months.
The inhibitor-ethanol solutions then were diluted 50× into 2 mM delipidated bovine serum albumin-phosphate buffered saline solution to make water-soluble glycosphingolipid inhibitor-bovine serum albumin complexes. The inhibitor-bovine serum album complexes were sterile-filtered and stored at −20° C. Prior to use, portions of the inhibitor-bovine serum albumin complexes were further diluted with Opti-F12 to make treatment solutions. Equal amounts of bovine serum albumin and ethanol were added into the control cultures. Cells (5×10^5) were seeded into 10-cm culture dishes containing 10 ml of Opti-F12 with 5% FBS. After 24 hours, the medium was replaced with fresh serum-free Opti-F12 medium, and cells were exposed to candidate GCS inhibitors at concentrations of 0, 1, 3, 10, 30, 100 and 300 nM for 24 hours.
Briefly, cells were washed with ice-cold phosphate buffered saline, fixed by methanol, and collected with rubber scraper. Chloroform was then added to yield a theoretical ratio of chloroform:methanol:water at 1:2:0.8 (v/v/v) to form a mono-phase. Cell debris and proteins were removed by centrifugation at 2200×g for 30 min. The supernatants were portioned by adding chloroform and 0.9% NaCl. […] A portion of purified glycosphingolipids normalized to 100 nmol of total phospholipids was analyzed by high performance thin layer chromatography. The thin layer chromatography separations were processed twice. The plate pretreated with 1% sodium borate was first developed in a solvent system consisting of chloroform/methanol (98/2, v/v). After air drying, the plate was then developed in a solvent system containing chloroform/methanol/water (70/30/4, v/v/v). The levels of glucosylceramide were detected by charring with 8% cupric sulfate in 8% phosphoric acid, and quantified by densitometric scanning using ImageJ, NIH Image.

Data set [3] is described as follows: IP PK: areas under the drug concentration curve after single IP dose in mice. In kind it is in vivo. Conditions: mice, single IP dose 10 mg/kg; for AUC: mouse, plasma.
[4] abbreviates: mouse, liver microsomes, Table 2, Cl vs H comparison.
The mark [5] stands for this setting: half-life when incubated with mouse liver microsomes.
The mark [6] stands for this setting: inhibition of GlcCer production in whole wild-type MDCKII cells, 24 hours.

Molecules are shown by their SMILES. Read-outs that look alike come from different tables or passages of the source. Some results are limits rather than exact numbers.

On to `O=C(CC1Cc2ccccc2C1)N[C@H](CN1CCCC1)[C@H](O)c1ccccc1` [Comp Ex. 1, reference compound], for which the half-life in data set [1] (setting [4]) came to 15 min. Besides, in data set [2] (Table 2, Cl vs H comparison), the IC50 (usually the concentration that inhibits the measured activity by half) was 6.5 nM.

As to `CC(C)(C)Oc1ccc([C@@H](O)[C@@H](CN2CCCC2)NC(=O)CC2Cc3ccccc3C2)cc1` [Comp. Ex. 2, reference compound], the half-life in data set [1] (setting [4]) is 120 min. Moreover, the IC50 in data set [2] (Table 2, Cl vs H comparison) worked out at 2.5 nM.

Consider `O=C(CC1Cc2ccccc2C1)N[C@H](CN1CCCC1)[C@H](O)c1ccc(OC(F)(F)F)cc1` [Comp. Ex. 3, reference compound], for which, in data set [1] (setting [4]), the half-life was 251 min.

Turning to `O=C(CC1Cc2ccccc2C1)N[C@H](CN1CCCC1)[C@H](O)c1ccc(OC2CC2)cc1` [Comp. Ex. 4, reference compound], in data set [1] (setting [4]), the half-life amounted to 3.8 min. Further, the IC50 in data set [2] (Table 2, Cl vs H comparison) stood at 1.7 nM.

Turning to `CC1(Oc2ccc([C@@H](O)[C@@H](CN3CCCC3)NC(=O)CC3Cc4ccccc4C3)cc2)COC1` [Comp. Ex. 5, reference compound], the half-life in data set [1] (setting [4]) amounted to 24 min. Moreover, in data set [2] (Table 2, Cl vs H comparison), the IC50 came out at 7.9 nM.

As to `CC1(C)COc2cc([C@@H](O)[C@@H](CN3CCCC3)NC(=O)CC3Cc4ccccc4C3)ccc2O1` [Comp. Ex. 7, reference compound], in data set [1] (setting [4]), the half-life was 29 min. The IC50 in data set [2] (Table 2, Cl vs H comparison) turned out to be 1 nM.

On to `O=C(CC1Cc2ccccc2C1)N[C@H](CN1CCCC1)[C@H](O)c1ccc(C2CC2)cc1` [Comp. Ex. 8, reference compound], for which, in data set [1] (setting [4]), the half-life stood at 56 min. Besides, in data set [2] (Table 2, Cl vs H comparison), the IC50 stood at 3.9 nM.

In the case of `O=C(CC1Cc2ccccc2C1)N[C@H](CN1CCCC1)[C@H](O)c1ccc(OC(F)F)cc1` [Comp. Ex. 9, reference compound], in data set [1] (setting [4]), the half-life amounted to 38 min.

As to `COc1ccccc1[C@@H](O)[C@@H](CN1CCCC1)NC(=O)CC1Cc2ccccc2C1` [Comp. Ex. 19, reference compound], in data set [2] (Table 2, Cl vs H comparison), the IC50 came out at 4.8 nM.

For `O=C(CC1Cc2ccccc2C1)N[C@H](CN1CCCC1)[C@H](O)c1ccc(OC(F)(F)F)c(Cl)c1` [Example 3, N-((1R,2R)-1-(3-chloro-4-(trifluoromethoxy)phenyl)-1-hydroxy-3-(pyrrolidin-1-yl)propan-2-yl)-2-(2,3-dihydro-1H-inden-2-yl)acetamide], the half-life in data set [1] (setting [5]) was 316 min. The IC50 in data set [2] (setting [6]) is 4.1 nM.

Consider `O=C(N[C@H](CN1CCCC1)[C@H](O)c1cccc(Cl)c1)OC1Cc2ccccc2C1` [Example 6, 2,3-dihydro-1H-inden-2-yl ((1R,2R)-1-(3-chlorophenyl)-1-hydroxy-3-(pyrrolidin-1-yl)propan-2-yl)carbamate], for which the half-life in data set [1] (setting [5]) came to 18 min. Besides, the IC50 in data set [2] (setting [6]) came out at 3.8 nM. Also, in data set [3], the “IP PK Brain AUC” value came to 997 ng·h/mL and the AUC (commonly the area under the concentration-time curve, a measure of exposure) stood at 401 ng·h/mL.

Regarding `O=C(CC1Cc2ccccc2C1)N[C@H](CN1CCCC1)[C@H](O)c1ccc(C2CC2)c(Cl)c1` [Example 8, N-((1R,2R)-1-(3-chloro-4-cyclopropylphenyl)-1-hydroxy-3-(pyrrolidin-1-yl)propan-2-yl)-2-(2,3-dihydro-1H-inden-2-yl)acetamide], in data set [1] (setting [5]), the half-life came to 91 min. In data set [2] (setting [6]), the IC50 was determined as 0.54 nM.

Consider `O=C(CC1Cc2ccccc2C1)N[C@H](CN1CC[C@@H](F)C1)[C@H](O)c1cccc(Cl)c1` [Example 10, N-((1R,2R)-1-(3-chlorophenyl)-3-((R)-3-fluoropyrrolidin-1-yl)-1-hyroxypropan-2-yl)-2-(2,3-dihydro-1H-inden-2-yl)acetamide], for which the half-life in data set [1] (setting [5]) was 12 min. Besides, the IC50 in data set [2] (setting [6]) came to 8.7 nM. Also, in data set [3], the “IP PK Brain AUC” value was determined as 940 ng·h/mL and the AUC was 289 ng·h/mL.

Consider `O=C(CC1Cc2ccccc2C1)N[C@H](CN1CC[C@@H](F)C1)[C@H](O)c1ccc(OC2CC2)c(Cl)c1` [Example 11, N-((1R,2R)-1-(3-chloro-4-cyclopropoxyphenyl)-3-((R)-3-fluoropyrrolidin-1-yl)-1-hydroxypropan-2-yl)-2-(2,3-dihydro-1H-inden-2-yl)acetamide], for which the half-life in data set [1] (setting [5]) is 5.5 min. Further, in data set [2] (setting [6]), the IC50 is 0.63 nM. For the same molecule, in data set [3], the “IP PK Brain AUC” value came to 178 ng·h/mL and the AUC stood at 397 ng·h/mL.

`O=C(CC1Cc2ccccc2C1)N[C@H](CN1CCCC1)[C@H](O)c1ccc(OC(F)F)c(Cl)c1` [Example 13, N-((1R,2R)-1-(3-chloro-4-(difluoromethoxy)phenyl)-1-hydroxy-3-(pyrrolidin-1-yl)propan-2-yl)-2-(2,3-dihydro-1H-inden-2-yl)acetamide]: the half-life in data set [1] (setting [5]) amounted to 187 min. The IC50 in data set [2] (setting [6]) turned out to be 0.71 nM. In data set [3], the “IP PK Brain AUC” value is 216 ng·h/mL and the AUC worked out at 535 ng·h/mL.

Regarding `CC1(OC(=O)N[C@H](CN2CCCC2)[C@H](O)c2cccc(Cl)c2)Cc2ccccc2C1` [Example 14, 2-methyl-2,3-dihydro-1H-inden-2-yl ((1R,2R)-1-(3-chlorophenyl)-1-hydroxy-3-(pyrrolidin-1-yl)propan-2-yl)carbamate], the IC50 in data set [2] (setting [6]) was 9.2 nM. Moreover, the AUC in data set [3] is 324 ng·h/mL.

For the molecule `O=C(CC1Cc2ccccc2C1)N[C@H](CN1CCC1)[C@H](O)c1cccc(Cl)c1` [Example 16, N-((1R,2R)-3-(azetidin-1-yl)-1-(3-chlorophenyl)-1-hydroxypropan-2-yl)-2-(2,3-dihydro-1H-inden-2-yl)acetamide], in data set [1] (setting [5]), the half-life worked out at 54 min. The IC50 in data set [2] (setting [6]) is 6.8 nM.

`COc1c(Cl)cccc1[C@@H](O)[C@@H](CN1CCCC1)NC(=O)CC1Cc2ccccc2C1` [Example 18, N-((1R,2R)-1-(3-chloro-2-methoxyphenyl)-1-hydroxy-3-(pyrrolidin-1-yl)propan-2-yl)-2-(2,3-dihydro-1H-inden-2-yl)acetamide]: the IC50 in data set [2] (setting [6]) was 81.5 nM.

`COc1ccc(Cl)cc1[C@@H](O)[C@@H](CN1CCCC1)NC(=O)CC1Cc2ccccc2C1` [Example 19, N-((1R,2R)-1-(5-chloro-2-methoxyphenyl)-1-hydroxy-3-(pyrrolidin-1-yl)propan-2-yl)-2-(2,3-dihydro-1H-inden-2-yl)acetamide]: the half-life in data set [1] (setting [5]) came out at 7.1 min. For the same molecule, the IC50 in data set [2] (setting [6]) came to 0.43 nM.

For the molecule `O=C(CC1Cc2ccccc2C1)N[C@H](CN1CCCC1)[C@H](O)c1cc(Cl)cc(OC2CC2)c1` [Example 20, N-((1R,2R)-1-(3-chloro-5-cyclopropoxyphenyl)-1-hydroxy-3-(pyrrolidin-1-yl)propan-2-yl)-2-(2,3-dihydro-1H-inden-2-yl)acetamide], the half-life in data set [1] (setting [5]) was found to be 6.5 min. Besides, the IC50 in data set [2] (setting [6]) worked out at 2.1 nM.

For the molecule `CC(C)(C)c1ccc([C@@H](O)[C@@H](CN2CCCC2)NC(=O)CC2Cc3ccccc3C2)cc1Cl` [Example 21, N-((1R,2R)-1-(4-(tert-butyl)-3-chlorophenyl)-1-hydroxy-3-(pyrrolidin-1-yl)propan-2-yl)-2-(2,3-dihydro-1H-inden-2-yl)acetamide], in data set [1] (setting [5]), the half-life is greater than 1000 min. Moreover, the IC50 in data set [2] (setting [6]) turned out to be 24.1 nM.

`O=C(CC1Cc2ccccc2C1)N[C@H](CN1CCCC1)[C@H](O)c1cccc(Cl)c1F` [Example 22, N-((1R,2R)-1-(3-chloro-2-fluorophenyl)-1-hydroxy-3-(pyrrolidin-1-yl)propan-2-yl)-2-(2,3-dihydro-1H-inden-2-yl)acetamide]: the half-life in data set [1] (setting [5]) is 4.6 min. The IC50 in data set [2] (setting [6]) worked out at 141 nM.
